According to BindingDB's records for doi:10.1016/0960-894X(95)00044-T (1995):

Biological target: DNA
Assay: Inhibition of calf thymus DNA/ethidium bromide complex formation.

EC50 [µM] | Compound
> 55 | Cc1cc(-c2c(F)cc3c(=O)ccn(C4CC4)c3c2F)cc(C)n1 [1-Cyclopropyl-7-(2,6-dimethyl-pyridin-4-yl)-6,8-difluoro-1H-quinolin-4-one]
> 51 | CC(=O)N[C@H]1CC[C@H](n2nc3c4cc(F)c(-c5cc(C)nc(C)c5)c(F)c4n(C4CC4)cc-3c2=O)CC1 [N-{4-[5-Cyclopropyl-7-(2,6-dimethyl-pyridin-4-yl)-6,8-difluoro-3-oxo-3,5-dihydro-pyrazolo[4,3-c]quinolin-2-yl]-cyclohexyl}-acetamide]
> 50 | Cc1cc(-c2c(F)cc3c4nn([C@H]5CC[C@@H](N)CC5)c(=O)c-4cn(C4CC4)c3c2F)cc(C)n1 [2-(4-Amino-cyclohexyl)-5-cyclopropyl-7-(2,6-dimethyl-pyridin-4-yl)-6,8-difluoro-2,5-dihydro-pyrazolo[4,3-c]quinolin-3-one]
0.93 | Cc1cc(-c2c(F)cc3c4nn(CCN(C)C)c(=O)c-4cn(C4CC4)c3c2F)cc(C)n1 [5-Cyclopropyl-2-(2-dimethylamino-ethyl)-7-(2,6-dimethyl-pyridin-4-yl)-6,8-difluoro-2,5-dihydro-pyrazolo[4,3-c]quinolin-3-one]
> 60 | Cc1cc(-c2c(F)cc3c4nn(-c5ccccc5)c(=O)c-4cn(C4CC4)c3c2F)cc(C)n1 [5-Cyclopropyl-7-(2,6-dimethyl-pyridin-4-yl)-6,8-difluoro-2-phenyl-2,5-dihydro-pyrazolo[4,3-c]quinolin-3-one]
> 60 | Cc1cc(-c2c(F)cc3c4nn(CCO)c(=O)c-4cn(C4CC4)c3c2F)cc(C)n1 [5-Cyclopropyl-7-(2,6-dimethyl-pyridin-4-yl)-6,8-difluoro-2-(2-hydroxy-ethyl)-2,5-dihydro-pyrazolo[4,3-c]quinolin-3-one]
> 60 | Cc1cc(-c2c(F)cc3c4nn(C)c(=O)c-4cn(C4CC4)c3c2F)cc(C)n1 [5-Cyclopropyl-7-(2,6-dimethyl-pyridin-4-yl)-6,8-difluoro-2-methyl-2,5-dihydro-pyrazolo[4,3-c]quinolin-3-one]
> 50 | Cc1cc(-c2c(F)cc3c4nn(CCCN(C)C)c(=O)c-4cn(C4CC4)c3c2F)cc(C)n1 [5-Cyclopropyl-2-(3-dimethylamino-propyl)-7-(2,6-dimethyl-pyridin-4-yl)-6,8-difluoro-2,5-dihydro-pyrazolo[4,3-c]quinolin-3-one]
> 60 | Cc1cc(-c2c(F)cc3c4nn(CC(=O)O)c(=O)c-4cn(C4CC4)c3c2F)cc(C)n1 [[5-Cyclopropyl-7-(2,6-dimethyl-pyridin-4-yl)-6,8-difluoro-3-oxo-3,5-dihydro-pyrazolo[4,3-c]quinolin-2-yl]-acetic acid]
> 50 | Cc1cc(-c2c(F)cc3c4nn(C5CCC(C)CC5)c(=O)c-4cn(C4CC4)c3c2F)cc(C)n1 (stereo unspecified) [5-Cyclopropyl-7-(2,6-dimethyl-pyridin-4-yl)-6,8-difluoro-2-(4-methyl-cyclohexyl)-2,5-dihydro-pyrazolo[4,3-c]quinolin-3-one]
> 50 | Cc1cc(-c2c(F)cc3c4nn(C5CCCCC5)c(=O)c-4cn(C4CC4)c3c2F)cc(C)n1 [2-Cyclohexyl-5-cyclopropyl-7-(2,6-dimethyl-pyridin-4-yl)-6,8-difluoro-2,5-dihydro-pyrazolo[4,3-c]quinolin-3-one]
> 50 | Cc1cc(-c2c(F)cc3c4nn(C5CCOCC5)c(=O)c-4cn(C4CC4)c3c2F)cc(C)n1 [5-Cyclopropyl-7-(2,6-dimethyl-pyridin-4-yl)-6,8-difluoro-2-(tetrahydro-pyran-4-yl)-2,5-dihydro-pyrazolo[4,3-c]quinolin-3-one]
> 50 | Cc1cc(-c2c(F)cc3c4nn([C@H]5CC[C@H](N)CC5)c(=O)c-4cn(C4CC4)c3c2F)cc(C)n1 [2-(4-Amino-cyclohexyl)-5-cyclopropyl-7-(2,6-dimethyl-pyridin-4-yl)-6,8-difluoro-2,5-dihydro-pyrazolo[4,3-c]quinolin-3-one]
> 54 | Cc1cc(-c2c(F)cc3c(=O)c(C(=O)O)cn(C4CC4)c3c2F)cc(C)n1 [WIN-57294]
> 52 | CC(=O)N[C@H]1CC[C@@H](n2nc3c4cc(F)c(-c5cc(C)nc(C)c5)c(F)c4n(C4CC4)cc-3c2=O)CC1 [N-{4-[5-Cyclopropyl-7-(2,6-dimethyl-pyridin-4-yl)-6,8-difluoro-3-oxo-3,5-dihydro-pyrazolo[4,3-c]quinolin-2-yl]-cyclohexyl}-acetamide]
> 50 | Cc1cc(-c2c(F)cc3c4nn([C@H]5CC[C@@H](N(C)C)CC5)c(=O)c-4cn(C4CC4)c3c2F)cc(C)n1 [5-Cyclopropyl-2-(4-dimethylamino-cyclohexyl)-7-(2,6-dimethyl-pyridin-4-yl)-6,8-difluoro-2,5-dihydro-pyrazolo[4,3-c]quinolin-3-one]
1.2 | Cc1cc(-c2c(F)cc3c4nn(CCNCCO)c(=O)c-4cn(C4CC4)c3c2F)cc(C)n1 [5-Cyclopropyl-7-(2,6-dimethyl-pyridin-4-yl)-6,8-difluoro-2-[2-(2-hydroxy-ethylamino)-ethyl]-2,5-dihydro-pyrazolo[4,3-c]quinolin-3-one]
> 50 | Cc1cc(-c2c(F)cc3c4nn([C@H]5CC[C@H](N(C)C)CC5)c(=O)c-4cn(C4CC4)c3c2F)cc(C)n1 [5-Cyclopropyl-2-(4-dimethylamino-cyclohexyl)-7-(2,6-dimethyl-pyridin-4-yl)-6,8-difluoro-2,5-dihydro-pyrazolo[4,3-c]quinolin-3-one]
> 60 | CCOC(=O)Cn1nc2c3cc(F)c(-c4cc(C)nc(C)c4)c(F)c3n(C3CC3)cc-2c1=O [[5-Cyclopropyl-7-(2,6-dimethyl-pyridin-4-yl)-6,8-difluoro-3-oxo-3,5-dihydro-pyrazolo[4,3-c]quinolin-2-yl]-acetic acid ethyl ester]
> 50 | Cc1cc(-c2c(F)cc3c4nn(C5CCN(C)CC5)c(=O)c-4cn(C4CC4)c3c2F)cc(C)n1 [5-Cyclopropyl-7-(2,6-dimethyl-pyridin-4-yl)-6,8-difluoro-2-(1-methyl-piperidin-4-yl)-2,5-dihydro-pyrazolo[4,3-c]quinolin-3-one]
27 | Cc1cc(-c2c(F)cc3c4n[nH]c(=O)c-4cn(C4CC4)c3c2F)cc(C)n1 [5-Cyclopropyl-7-(2,6-dimethyl-pyridin-4-yl)-6,8-difluoro-2,5-dihydro-pyrazolo[4,3-c]quinolin-3-one]
